{"source": "patent US8911953B2", "about": "“TDF-related compounds and analogs thereof, analogs and bioactive fragments” (Thrasos Innovation, Inc., priority 2005, dated 2014)", "key": {"STZ CD1 mice": {"system": "STZ CD1 mice", "test": "Streptozotocin (STZ)-induced diabetic nephropathy model", "type": "in vivo, mouse", "settings": "ip 5 mg/kg/24 hr, month 5 through 6", "procedure": "Reversal of interstitial fibrosis by TDFRP compounds in a CD1 mouse model of streptozotocin (STZ)-induced diabetic nephropathy. A. Schematic of the STZ experimental protocol. Mice were injected with streptozotocin at Day 0 (D0) to induce diabetes and renal injury and sacrificed at 6 months (6M). Vehicle or BMP-7 (positive control) was administered from D0 through 6 months (6M). TDFRP (SEQ ID NO:45) was administered either orally or intraperitoneally from month 5 (5M) through 6M for 30 total days.; B: Kidney section of vehicle-treated STZ animal showing significant interstitial fibrosis; C: Kidney section of STZ animal that received ip administration of TDFRP compound (SEQ ID NO:45) (5 mg/kg/24 hr).\nSTZ-induced Type 1 diabetes is a widely used experimental model for diabetic nephropathy. Mice given iv STZ develop a progressive loss of pancreatic beta cells culminating in diabetes and renal damage within a six month period of time. In a typical experiment, TDFRP compounds can alleviate fibrosis, reduce proteinuria and protect the kidneys from STZ damage.\nThe effect of TDFRP compounds on cell damage due to diabetic nephropathy is measured by the method of Wang and coworkers (Wang et al., (2003) 63(6): 2037) (FIG. 8A). Diabetes is induced in 200 g rats by a single dose of streptozotocin."}, "[1]": {"system": "LNCaP human prostate cancer cells", "test": "Smad phosphorylation in LNCaP prostate cancer cells (Western blot)", "type": "cell-based", "settings": "for Smad 1, 5, 8 phosphorylation on co-administration: TDFRP compound co-administered with BMP-6, LNCaP cells; for Smad phosphorylation and activation: single agent, cultured LNCaP cells", "procedure": "The detection of Smad phosphorylation by Western analysis, for example in LNCaP (prostate cancer cells) or EC (vascular endothelial cells) in culture medium can be examined after exposure to varying concentrations of TDFRP or control compounds. BMP-7 serves as a positive control. Cells are lysed in RIPA lysis buffer (50 mM Tris-HCl at pH 8.0, 150 mM NaCl, 1% NP-40, 0.5% sodium deoxycholate, 0.1% SDS) containing 1 mM PMSF, 1 mM sodium orthovanadate, and 10 ug/mL proteinase inhibitor cocktail. Lysates are incubated on ice for 15 minutes, centrifuged, and transferred supernatant to a clean tube. 50 to 100 ug is used for analysis by SDS-PAGE. Resolved proteins are electro transferred onto PVDF membrane. The blot is blocked by incubating in 3% non-fat dry milk prepared in PBS at room temperature for 1 hour with constant slow agitation. The blot is incubated with 1-2 ug/mL of primary antibody (rabbit anti-phospho-Smad 1) prepared in PBS-milk, overnight with agitation at 4 degree C., washed twice with PBS, and incubated with secondary antibody (anti rabbit HRP conjugated IgG, 1:3000 dilution) at room temperature for 2 hours with agitation. After washing in PBS-0.05% Tween 20 for 5 minutes and rinsing, Smad phosphorylation is detected via an HRP reaction according to manufacturer's instructions (FIGS. 2, 3, 18, 2X).\nFor detection of Smad phosphorylation by Western analysis, LNCaP (prostate cancer cells) or EC (vascular endothelial cells) in culture medium are exposed to varying concentrations of TDFRP or control compounds. BMP-7 served as a positive control. Cells are lysed in RIPA lysis buffer (50 mM Tris-HCl at pH 8.0, 150 mM NaCl, 1% NP-40, 0.5% sodium deoxycholate, 0.1% SDS) containing 1 mM PMSF, 1 mM sodium orthovanadate, and 10 ug/mL proteinase inhibitor cocktail. Lysates are incubated on ice for 15 minutes, centrifuged, and transferred supernatant to a clean tube. 50 to 100 ug is used for analysis by\nSDS-PAGE. Resolved proteins are electro transferred onto PVDF membrane. The blot is blocked by incubating in 3% non-fat dry milk prepared in PBS at room temperature for 1 hour with constant slow agitation. The blot is incubated with 1-2 ug/mL of primary antibody (rabbit anti-phospho-Smad 1) prepared in PBS-milk, overnight with agitation at 4 degree C., washed twice with PBS, and incubated with secondary antibody (anti rabbit HRP conjugated IgG, 1:3000 dilution) at room temperature for 2 hours with agitation. After washing in PBS-0.05% Tween 20 for 5 minutes and rinsing, Smad phosphorylation is detected via an HRP reaction according to manufacturer's instructions (FIGS. 3, 27).\nBMP signaling molecules co-administered with TDFRP compounds show synergistic or enhanced downstream signaling as detected by Smad phosphorylation. Smad phosphorylation was assessed by Western analysis in LNCaP (prostate cancer cells) or EC (vascular endothelial cells) cells in culture medium exposed to varying concentrations of TDFRP or control compounds. BMP-7 served as a positive control. Cells are lysed in RIPA lysis buffer (50 mM Tris-HCl at pH 8.0, 150 mM NaCl, 1% NP-40, 0.5% sodium deoxycholate, 0.1% SDS) containing 1 mM PMSF, 1 mM sodium orthovanadate, and 10 ug/mL proteinase inhibitor cocktail. Lysates are incubated on ice for 15 minutes, centrifuged, and transferred supernatant to a clean tube. 50 to 100 ug is used for analysis by SDS-PAGE. Resolved proteins are electro transferred onto PVDF membrane. […]"}}, "note": "“Also recorded” adds a separate entry of the source. Positions of bridges follow the written chain, without caps; N, C: chain ends. No end group written: not given here.", "data": [{"sequence": "CYFDDSSNVLCKKYRS (disulfide 1-11 (inferred); not fully specified) [SEQ ID NO:45]", "values": [{"measurement": "renal interstitial fibrosis", "setting": "STZ CD1 mice", "result": "effectively reversed"}, {"measurement": "Smad 1, 5, 8 phosphorylation on co-administration", "setting": "[1]", "result": "enhanced"}, {"measurement": "Smad 1, 5, 8 phosphorylation on co-administration", "setting": "[1]; listed as SEQ ID NO: 45", "result": "enhanced or synergistic activity"}, {"measurement": "Smad phosphorylation and activation", "setting": "[1]", "result": "induced"}, {"measurement": "Smad phosphorylation and activation", "setting": "[1]; listed as SEQ ID NO: 45", "result": "phosphorylation and activation of Smad1 and Smad5; also recorded: Smad 1, 5, 8 phosphorylation and activation"}]}]}
